What was measured:
[1] = system: phosphorylation of ERK, KRAS G12C in NCI-H358 cells; test: pERK inhibition assay; format: cell-based; conditions: Homo sapiens, NCI-H358, 4 h
How it was run: (§1)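 Phospho-ERK quantified by in-cell ELISA with TMB read-out at OD450 following 4 h compound exposure (final 0.5% DMSO). Cell lines were SW620 (KRAS G12V), AGS (G12D) and NCI-H358 (G12C), grown in RPMI-1640 with 10% FBS. A 4-parameter sigmoidal model gave the IC50.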

[2] = system: phosphorylation of ERK, KRAS G12D in AGS cells; test: pERK inhibition assay; format: cell-based; conditions: Homo sapiens, AGS, 4 h
How it was run: as §1

[3] = system: phosphorylation of ERK, KRAS G12V in SW620; test: pERK inhibition assay; format: cell-based; conditions: Homo sapiens, SW-620, 4 h, SW620 cells
How it was run: as §1

AGS cells (KRAS G12D) = test: Cell viability assay (Cell Counting Kit-8, 3-day); format: cell-based, human; conditions: Homo sapiens, 72 h, 72 hrs incubation
How it was run: (§2)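 After overnight attachment, cells received compounds (0.5% DMSO) for 72 hrs; viability was then quantified with CCK-8, reading OD450 minus OD650, and IC50 values were obtained from a 4-parameter concentration-response fit.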

[4] = system: NCI-H358 cells (KRAS G12C); test: Cell viability assay (Cell Counting Kit-8, 3-day); format: cell-based, human; conditions: Homo sapiens, NCI-H358, 72 h, NCI-H358, 72 hrs incubation
How it was run: as §2

SW620 cells (KRAS G12V) = test: Cell viability assay (Cell Counting Kit-8, 3-day); format: cell-based, human; conditions: Homo sapiens, SW-620; SW620, 72 hrs incubation
How it was run: as §2

KRAS G12C-BRAF complex = KRAS G12C-BRAF complex (Homo sapiens (Human), UniProt P01116+P62937, G12C); test: KRAS-BRAF with CYPA (500 nM) interaction assay (TR-FRET, Example 136); format: biochemical; conditions: KRAS G12C-BRAF disruption
Sequence of KRAS G12C-BRAF complex (P01116-2 other isoform, or with tags, fused parts or gaps G12C): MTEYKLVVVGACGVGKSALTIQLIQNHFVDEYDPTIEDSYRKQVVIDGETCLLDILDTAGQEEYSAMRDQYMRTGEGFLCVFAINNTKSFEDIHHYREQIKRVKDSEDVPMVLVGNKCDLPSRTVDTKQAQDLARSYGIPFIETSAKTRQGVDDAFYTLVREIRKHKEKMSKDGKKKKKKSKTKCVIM
Sequence of KRAS G12C-BRAF complex (P62937 whole entry): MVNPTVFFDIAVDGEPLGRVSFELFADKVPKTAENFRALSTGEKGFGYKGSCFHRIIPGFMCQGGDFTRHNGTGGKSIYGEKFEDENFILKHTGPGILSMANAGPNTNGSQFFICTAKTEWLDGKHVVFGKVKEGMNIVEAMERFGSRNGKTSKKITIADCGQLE

Compound	IC50 [1] [nM]	IC50 [2] [nM]	IC50 [3] [nM]	IC50 (AGS cells (KRAS G12D)) [nM]	IC50 [4] [nM]	IC50 (SW620 cells (KRAS G12V)) [nM]	IC50 (KRAS G12C-BRAF complex) [nM]
CO[C@@H](C)c1ncc(N2CCN(CC(F)(F)F)CC2)cc1-c1c2c3cc(cc4c3n1CCC4)-c1csc(n1)C[C@H](NC(=O)[C@H]1[C@H](C)[C@@H]1C)C(=O)N1CCC[C@H](N1)C(=O)OCC(C)(C)C2 (atropisomer, axis not shown; (M)) [Example 86, (1r,2R,3S)-N-[(7S,13S)-(20M)-20-[2-[(1S)-1-methoxyethyl]-5-[4-(2,2,2-trifluoroethyl)piperazin-1-yl]-3-pyridyl]-17,17-dimethyl-8,14-dioxo-15-oxa-4-thia-9,21,30,31-tetrazahexacyclo[23.3.1.1^2,5.1^9,13.0^19,27.0^21,26]hentriaconta-1 (28),2,5 (31),19,25 (29),26-hexaen-7-yl]-2,3-dimethyl-cyclopropanecarboxamide]	1.8	15	0.8	45.2	14.1	2.5	17.9
CO[C@@H](C)c1ncc(N2CCN(CC(F)(F)F)CC2)cc1-c1c2c3cc(cc4c3n1CC(F)(F)C4)-c1csc(n1)C[C@H](NC(=O)[C@H]1[C@H](C)[C@@H]1C)C(=O)N1CCC[C@H](N1)C(=O)OCC(C)(C)C2 (atropisomer, axis not shown; (M)) [Example 87, (1r,2S,3R)-N-[(7S,13S)-23,23-difluoro-(20M)-20-[2-[(1S)-1-methoxyethyl]-5-[4-(2,2,2-trifluoroethyl)piperazin-1-yl]-3-pyridyl]-17,17-dimethyl-8,14-dioxo-15-oxa-4-thia-9,21,30,31-tetrazahexacyclo[23.3.1.1^2,5.1^9,13.0^19,27.0^21,26]hentriaconta-1 (28),2,5 (31),19,25 (29),26-hexaen-7-yl]-2,3-dimethyl-cyclopropanecarboxamide]	4.8	40.6	1.5	58	30	4	32.6
CO[C@@H](C)c1ncc(N2CCOCC2)cc1-c1c2c3cc(cc4c3n1CCO4)-c1csc(n1)C[C@H](NC(=O)[C@H]1C[C@@H]1c1cncnc1)C(=O)N1CCC[C@H](N1)C(=O)OCC(C)(C)C2 (atropisomer, axis not shown; (M)) [Example 88, (1S,2S)-N-[(7S,13S)-(20M)-20-[2-[(1S)-1-methoxyethyl]-5-morpholino-3-pyridyl]-17,17-dimethyl-8,14-dioxo-15,24-dioxa-4-thia-9,21,30,31-tetrazahexacyclo[23.3.1.1^2,5.1^9,13.0^19,27.0^21,26]hentriaconta-1 (28),2,5 (31), 19,25 (29),26-hexaen-7-yl]-2-pyrimidin-5-yl-cyclopropanecarboxamide]	0.3	1.4	0.2	4	2	0.4	9.7
CO[C@@H](C)c1ncc(N2CCOCC2)cc1-c1c2c3cc(cc4c3n1CCC4)-c1csc(n1)C[C@H](NC(=O)[C@H]1C[C@@H]1c1cccnc1)C(=O)N1CCC[C@H](N1)C(=O)OCC(C)(C)C2 (atropisomer, axis not shown; (M)) [Example 89, (1S,2S)-N-[(7S,13S)-(20M)-20-[2-[(1S)-1-methoxyethyl]-5-morpholino-3-pyridyl]-17,17-dimethyl-8,14-dioxo-15-oxa-4-thia-9,21,30,31-tetrazahexacyclo[23.3.1.1^2,5.1^9,13.0^19,27.0^21,26]hentriaconta-1 (28),2,5 (31), 19,25 (29),26-hexaen-7-yl]-2-(3-pyridyl)cyclopropanecarboxamide]	0.6	4.8	0.4	6	1.5	0.3	6
CO[C@@H](C)c1ncc(N2CCN(CC(F)(F)F)CC2)cc1-c1c2c3cc(cc4c3n1CCC4)-c1csc(n1)C[C@H](NC(=O)[C@H]1C[C@@H]1c1cccnc1)C(=O)N1CCC[C@H](N1)C(=O)OCC(C)(C)C2 (atropisomer, axis not shown; (M)) [Example 90, (1S,2S)-N-[(7S,13S)-(20M)-20-[2-[(1S)-1-methoxyethyl]-5-[4-(2,2,2-trifluoroethyl)piperazin-1-yl]-3-pyridyl]-17,17-dimethyl-8,14-dioxo-15-oxa-4-thia-9,21,30,31-tetrazahexacyclo[23.3.1.1^2,5.1^9,13.0^19,27.0^21,26]hentriaconta-1 (28),2,5 (31), 19,25 (29),26-hexaen-7-yl]-2-(3-pyridyl)cyclopropanecarboxamide]	1.7	9.4	0.6	16.8	3.3	0.8	6.4
CO[C@@H](C)c1ncc(N2CCOCC2)cc1-c1c2c3cc(cc4c3n1CC(F)(F)C4)-c1csc(n1)C[C@H](NC(=O)[C@H]1C[C@@H]1c1cccnc1)C(=O)N1CCC[C@H](N1)C(=O)OCC(C)(C)C2 (atropisomer, axis not shown; (M)) [Example 91, (1S,2S)-N-[(7S,13S)-23,23-difluoro-(20M)-20-[2-[(1S)-1-methoxyethyl]-5-morpholino-3-pyridyl]-17,17-dimethyl-8,14-dioxo-15-oxa-4-thia-9,21,30,31-tetrazahexacyclo[23.3.1.1^2,5.1^9,13.0^19,27.0^21,26]hentriaconta-1 (28),2,5 (31),19,25 (29),26-hexaen-7-yl]-2-(3-pyridyl)cyclopropanecarboxamide]	0.5	3.2	0.6	9.7	2.8	0.6	8.1
CO[C@@H](C)c1ncc(N2CCN(C)CC2)cc1-c1c2c3cc(cc4c3n1CC(F)(F)C4)-c1csc(n1)C[C@H](NC(=O)[C@H]1C[C@@H]1c1cccnc1)C(=O)N1CCC[C@H](N1)C(=O)OCC(C)(C)C2 (atropisomer, axis not shown; (M)) [Example 92]	1.4	6	1	8.8	2.5	0.7	16
CO[C@@H](C)c1ncc(N2CCN(C)CC2)cc1-c1c2c3cc(cc4c3n1CCO4)-c1csc(n1)C[C@H](NC(=O)[C@H]1C[C@@H]1c1cncnc1)C(=O)N1CCC[C@H](N1)C(=O)OCC(C)(C)C2 (atropisomer, axis not shown; (M)) [Example 93, (1S,2S)-N-[(7S,13S)-(20M)-20-[2-[(1S)-1-methoxyethyl]-5-(4-methylpiperazin-1-yl)-3-pyridyl]-17,17-dimethyl-8,14-dioxo-15,24-dioxa-4-thia-9,21,30,31-tetrazahexacyclo[23.3.1.1^2,5.1^9,13.0^19,27.0^21,26]hentriaconta-1 (28),2,5 (31), 19,25 (29),26-hexaen-7-yl]-2-pyrimidin-5-yl-cyclopropanecarboxamide]	1.2	3.5	1.2	5	3	1	14.8
CO[C@@H](C)c1ncc(N2CCOCC2)cc1-c1c2c3cc(cc4c3n1CCC4)-c1csc(n1)C[C@H](NC(=O)[C@H]1C[C@@H]1c1cncnc1)C(=O)N1CCC[C@H](N1)C(=O)OCC(C)(C)C2 (atropisomer, axis not shown; (M)) [Example 94, (1S,2S)-N-[(7S,13S)-(20M)-20-[2-[(1S)-1-methoxyethyl]-5-morpholino-3-pyridyl]-17,17-dimethyl-8,14-dioxo-15-oxa-4-thia-9,21,30,31-tetrazahexacyclo[23.3.1.1^2,5.1^9,13.0^19,27.0^21,26]hentriaconta-1 (28),2,5 (31),19,25 (29),26-hexaen-7-yl]-2-pyrimidin-5-yl-cyclopropanecarboxamide]	0.4	2.4	0.4	6.9	2.3	0.5	6.9
CO[C@@H](C)c1ncc(N2CCN(C)CC2)cc1-c1c2c3cc(cc4c3n1CC(F)(F)C4)-c1csc(n1)C[C@H](NC(=O)[C@H]1C[C@@H]1c1cncnc1)C(=O)N1CCC[C@H](N1)C(=O)OCC(C)(C)C2 (atropisomer, axis not shown; (M)) [Example 95]	0.5	3.4	0.4	8.7	4	1.3	13.7
CO[C@@H](C)c1ncc(N2CCN(C)CC2)cc1-c1c2c3cc(cc4c3n1CCO4)-c1csc(n1)C[C@H](NC(=O)[C@H]1C[C@@H]1c1cccnc1)C(=O)N1CCC[C@H](N1)C(=O)OCC(C)(C)C2 (atropisomer, axis not shown; (M)) [Example 96, (1S,2S)-N-[(7S,13S)-(20M)-20-[2-[(1S)-1-methoxyethyl]-5-(4-methylpiperazin-1-yl)-3-pyridyl]-17,17-dimethyl-8,14-dioxo-15,24-dioxa-4-thia-9,21,30,31-tetrazahexacyclo[23.3.1.1^2,5.1^9,13.0^19,27.0^21,26]hentriaconta-1 (28),2,5 (31),19,25 (29),26-hexaen-7-yl]-2-(3-pyridyl)cyclopropanecarboxamide]	0.4	1.2	0.4	1.7	1	0.2	9.4
